Assay results taken from patent US11402367B2, “Integrated multi-electrode array and trans-endothelial electrical resistance in organ-on-a-chip microsystems” (President and Fellows of Harvard College, priority 2017, dated 2022).

How the values were obtained:
hamster cardiomyocytes = settings: TNF-α at 200 nanograms/ml^3; cited from earlier work
[1] = test system: endothelial layer (HUVECs); assay: TEER and capacitance measurement of the endothelial layer in the MEA-TEER Heart-on-Chip; format: cell-based, human; settings: for effect on TEER values / endothelial barrier: TNF-α 2 μg/mL overnight, isoproterenol 50 nM, 30 minutes, FIG. 5A, 5B
Description: The MEA-TEER chips are surface-treated with an oxygen plasma (Atto, Diener electronic GmbH, Germany at O2, 15 standard cubic centimeters per minute (“sccm”), 100 Watts, 30 seconds) to create hydrophilic, sterile, flow systems. Both apical and basal channels 116, 117, 216, 217 are coated overnight with human fibronectin (Sigma at 100 micrograms (“μg”/mL in PBS with Mg^2+ and Ca^2+ at 4° C.). HUVECs were seeded at 2*10^6 cell per mL in the apical microchannel, and, then, left static overnight.
(§1) Cardiomyocytes are seeded at 2*10^6 cell per mL in the basal microchannel, followed by 3 hours to overnight inculcation, before connecting both channels 116, 117, 216, 217 to flow at 60 microliters (“μL”)/hr. Flow is controlled by a peristaltic pump (Ismatech) and connections re in Pharmed tubing (Cole-Parmer) having a 0.511 inner diameter. […] To challenge the endothelial barrier TNF (Sigma) is added at 2 μg/mL in the bottom microchannel 117, 217 during overnight flow. Isoproterenol (Sigma) 50 nanomolar (“nM”) is added to the endothelial microchannel for 30 minutes followed by MEA measurement.
TEER measurements are carried out by applying a 10 microamperes (“μA”) sinusoidal excitation signal in a four-electrode set-up in the frequency range 100 KHz-10 hertz (“Hz”). AC measurements are preferable for TEER measurements to avoid charging effects over the cell membranes and the electrodes. The four-electrode set-up, utilizing one opposing pair of electrodes for current excitation and another opposing pair of electrodes for voltage sensing, provides benefits of eliminating contact resistance associated with two electrode measurements.
TEER and capacitance values are derived using the equivalent circuit and model depicted in FIGS. 3A, 6A, and 6B. A resistor Rsol describes the solution conductivity, while the electric response of the endothelial layer is modeled using a resistor (RTEER) and a constant phase element (CPEt) in parallel to extract TEER of the cell-cell junctions, as well as the contribution of cell membrane capacitance and, indirectly, the overall monolayer surface area.

[2] = test system: human induced pluripotent stem cell-derived cardiomyocytes (hiPSC-CMs, Cor.4U); assay: MEA measurement of cardiac field potentials in the MEA-TEER Heart-on-Chip; format: cell-based; settings: isoproterenol 50 nM; basal beat rate 60 beats per minute; FIG. 5C
Description: HUVECs (Lonza) were expanded in EGM media (Lonza) and used at passages 2-6 in the chip experiments. Human induced pluripotent stem cell-derived cardiomyocytes hiPSC-CMs, Cor.4U, Axiogenesis) were handled according to the vendor's instructions and used a passage 1 after thawing. Briefly, cryopreserved cells were thawed on fibronectin-coated cell culture vessels in the presence of 5 […] puromycin to select for MYH6-positive cells. Three hours after thawing, the puromycin containing media was gently refreshed to wash out remaining cryopreservant (DMSO). Twenty-four hours after seeding, cell culture media was refreshed without puromycin. The following day, the cardiomyocytes were replated into the chips using 0.5% trypsin. […]
Spontaneous cardiac field potentials (“FPs”) are recorded from cardiomyocytes using Platinum and Platinum Black MEAs with the commercial Multi-Channel-System USB-MEA60-Inv-BC-System, Multi-Channel-Systems (MCS) GmbH. […] Cardiac FPs are recorded for 120 seconds for each measurement using Cardio2D software and are analyzed with Cardio2D+ (both from Multi Channel Systems). Measured parameters, including FP duration (FPD, milliseconds), peak-to-peak interval (PPI, seconds), beating rate (beats per minute), and conduction velocity (CV, centimer s_1) are exported into Microsoft Excel files for further analysis. […]

[3] = test system: endothelial layer (HUVECs); format: cell-based, human; settings: adherens junction staining; FIGS. 4A-4C, 9A-9B, 10A-10C
Description: Cardiomyocytes are seeded at 2*10^6 cell per mL in the basal microchannel, followed by 3 hours to overnight inculcation, before connecting both channels 116, 117, 216, 217 to flow at 60 microliters (“μL”)/hr. Flow is controlled by a peristaltic pump ([…]) and connections re in […] tubing (Cole-Parmer) having a 0.511 inner diameter. […] To challenge the endothelial barrier TNF (Sigma) is added at 2 μg/mL in the bottom microchannel 117, 217 during overnight flow. Isoproterenol (Sigma) 50 nanomolar (“nM”) is added to the endothelial microchannel for 30 minutes followed by MEA measurement. Chips are rinsed in phosphate-buffered saline and fixated in 4% paraformaldehyde (Sigma) for 15 minutes at room temperature. ICC is carried out after permeabilization in phosphate-buffered saline with 0.05-0.1% Triton X-100 (Sigma) and blocking for 30 minutes in 3-5% Bovine Serum Albumin (Jackson ImmunoResearch, West Grove, Pa.) or 10% goat serum in phosphate-buffered saline with 0.05-0.1% Triton-X 100. Primary antibodies are applied in 2% goat serum or 0.5% BSA over-night at 4° C. or at RT The following primary antibodies are used for ICC experiments: mouse anti-vascular endothelial (VE)-cadherin (Abcam, 1:100), alpha-actinin (Abcam, 1:200) Cells are washed three times in phosphate-buffered saline with 0.05-0.1% Triton-X 100, followed by staining with secondary antibody staining for 30-60 min at RT. […]

[4] = test system: myocardial tissue (cardiomyocytes); assay: Immunohistochemistry of myocardial tissue on the MEA platform (alpha-actinin); format: cell-based, human; settings: isoproterenol treatment; FIGS. 4D-4E
Description: as §1
Chips are rinsed in phosphate-buffered saline and fixated in 4% paraformaldehyde (Sigma) for 15 minutes at room temperature. ICC is carried out after permeabilization in phosphate-buffered saline with 0.05-0.1% Triton X-100 (Sigma) and blocking for 30 minutes in 3-5% Bovine Serum Albumin (Jackson ImmunoResearch, West Grove, Pa.) or 10% goat serum in phosphate-buffered saline with 0.05-0.1% Triton-X 100. Primary antibodies are applied in 2% goat serum or 0.5% BSA over-night at 4° C. or at RT […]

[5] = 100 nM isoproterenol; mono-channel fluidic system; cited from earlier work

| Compound | contractility of hamster cardiomyocytes (hamster cardiomyocytes) | effect on TEER values / endothelial barrier [1] | capacitance after the TNF-α challenge ([1]; TNF-α 2 μg/mL, from 194±33 nF after stabilization at day 2) [nF] | effect on TEER capacitance ([1]; TNF-α addition, FIG. 5B) | TEER values after TNF-α challenge ([1]; after 24 hours TNF-α 2 μg/mL, dropping from 230±45 Ω before challenge, p<0.01) | increase in beat rate [2] [%] | integrity of the endothelial barrier by ICC [3] | changes of cardiomyocytes by IHC versus control [4] | change of beat rate [5] [%] |
| --- | --- | --- | --- | --- | --- | --- | --- | --- | --- |
| TNF-α | reduce contractility | TEER values decrease to the same values as ECM-coated chips without cells chip | 2968±52 | increasing the capacitance significantly | 15±13 Ω |  |  |  |  |
| CC(C)NCC(O)c1ccc(O)c(O)c1 (stereo not shown) [isoproterenol] |  | does not affect the endothelial barrier |  |  |  | 60 | does not show any change in integrity of a barrier | do not show major changes | 60 |
